This passage reports DC50 and Dmax results from patent US20260317324A1, “BIFUNCTIONAL COMPOUNDS FOR DEGRADING BRAF VIA UBIQUITIN PROTEOSOME PATHWAY” (Nurix Therapeutics, Inc., priority 2023, published 2026).

Format in all cases: cell-based
For one experiment, the target named is T1, BRAF V600E (Homo sapiens, UniProt P15056, V600E).
T1 construct: endogenous C-terminal HiBiT fusion tag on BRAF V600E allele; endogenous in cells; host or cells: A375 clone 1F10 (CRISPR-Cas9 knock-in of the HiBiT tag; parental A375 from ATCC)
T1 sequence (P15056 whole entry V600E, the tested form may be a part): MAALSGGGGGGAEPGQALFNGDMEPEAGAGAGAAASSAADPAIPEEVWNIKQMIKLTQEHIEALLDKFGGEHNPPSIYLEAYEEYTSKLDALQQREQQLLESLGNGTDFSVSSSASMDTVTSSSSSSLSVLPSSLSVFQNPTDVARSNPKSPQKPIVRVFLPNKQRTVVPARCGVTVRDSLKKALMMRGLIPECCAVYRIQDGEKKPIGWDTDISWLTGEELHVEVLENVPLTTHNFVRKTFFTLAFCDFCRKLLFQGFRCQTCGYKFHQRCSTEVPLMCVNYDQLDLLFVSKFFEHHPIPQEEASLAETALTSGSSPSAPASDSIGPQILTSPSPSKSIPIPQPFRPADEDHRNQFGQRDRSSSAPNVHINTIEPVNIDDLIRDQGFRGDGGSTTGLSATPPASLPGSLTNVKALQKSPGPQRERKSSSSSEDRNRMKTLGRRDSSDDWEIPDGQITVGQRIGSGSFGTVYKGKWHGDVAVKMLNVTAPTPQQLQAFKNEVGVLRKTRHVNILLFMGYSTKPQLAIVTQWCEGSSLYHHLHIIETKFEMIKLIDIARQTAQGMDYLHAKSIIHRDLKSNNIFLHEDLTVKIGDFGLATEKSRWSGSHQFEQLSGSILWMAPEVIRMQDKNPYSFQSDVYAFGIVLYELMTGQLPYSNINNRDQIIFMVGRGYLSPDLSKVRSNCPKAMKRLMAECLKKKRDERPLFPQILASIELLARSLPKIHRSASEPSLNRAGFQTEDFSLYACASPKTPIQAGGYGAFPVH
The experiment in a line: BRAF HiBiT degradation assay, C-terminal HiBiT-tagged BRAF V600E A375 cells (clone 1F10), Nano-Glo HiBiT Lytic assay. As to conditions: for Dmax: A-375. In outline: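 Steps: seed HiBiT-tagged A375 clone 1F10 cells; incubate 24 h, 37 °C, 5% CO2; add compound (11 half-log points from 1 μM, 0.2% DMSO); lyse with HiBiT detection reagent plus LgBiT for 10 min; read luminescence; fit % protein remaining against concentration.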

The next experiment addresses T2, BRAF G466V (Homo sapiens, UniProt P15056, G466V).
T2 construct: Horizon Discovery (HCT-116 BRAF−/− cells); host or cells: HCT-116 BRAF−/− cells, clone 8, lentiviral transduction
The experiment in a line: BRAF HiBiT degradation assay, C-terminal HiBiT-tagged BRAF G466V overexpressed in HCT-116 BRAF−/− cells (clone 8), Nano-Glo HiBiT Lytic assay. A digest of the protocol: (§1)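 We quantified degradation of the C-terminally HiBiT-tagged, overexpressed mutant by lytic luminescence, normalizing to DMSO-treated cells with wild-type HCT-116 background subtracted. Dose series ran from 1 μM to 0.01 nM at 0.2% DMSO. Observed Dmax is % degraded at maximal effect.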

The target in a further experiment is T3, BRAF G469A (Homo sapiens, UniProt P15056, G469A).
T3 construct: Horizon Discovery (HCT-116 BRAF−/− cells); host or cells: HCT-116 BRAF−/− cells, clone 34, lentiviral transduction
T3 sequence (P15056 whole entry G469A): as the sequence (P15056 whole entry V600E, the tested form may be a part) above, with G469A, E600V counted along it
The experiment in a line: BRAF HiBiT degradation assay, C-terminal HiBiT-tagged BRAF G469A overexpressed in HCT-116 BRAF−/− cells (clone 34), Nano-Glo HiBiT Lytic assay. A digest of the protocol: as §1

The next experiment concerns the target T4, BRAF D594G (Homo sapiens, UniProt P15056, D594G).
T4 construct: Horizon Discovery (HCT-116 BRAF−/− cells); host or cells: HCT-116 BRAF−/− cells, clone 63, lentiviral transduction
The experiment in a line: BRAF HiBiT degradation assay, C-terminal HiBiT-tagged BRAF D594G overexpressed in HCT-116 BRAF−/− cells (clone 63), Nano-Glo HiBiT Lytic assay. A digest of the protocol: as §1

Setting [1] is: A375 (BRAF V600E, Class 1), DC50 at 50% degradation.
Setting [2] is: A375 (BRAF V600E, Class 1), observed Dmax, % protein degraded relative to DMSO control.
Where [3] appears, read: BRAF G466V (Class 3), HCT-116 BRAF−/− cells, DC50 at 50% degradation.
Where [4] appears, read: BRAF G466V (Class 3), HCT-116 BRAF−/− cells, observed Dmax relative to DMSO control.
Where [5] appears, read: BRAF G469A (Class 2), HCT-116 BRAF−/− cells, DC50 at 50% degradation.
[6] abbreviates: BRAF G469A (Class 2), HCT-116 BRAF−/− cells, observed Dmax relative to DMSO control.
The mark [7] stands for this setting: BRAF D594G (Class 3), HCT-116 BRAF−/− cells, DC50 at 50% degradation.
Setting [8] is: BRAF D594G (Class 3), HCT-116 BRAF−/− cells, observed Dmax relative to DMSO control.
[9] abbreviates: A375 (BRAF V600E), DC50 at 50%: fitted conc. at Y=50.
Where [10] appears, read: A375 (BRAF V600E), percentage protein degraded at maximal compound effect relative to DMSO.
Setting [11] is: BRAF G466V, DC50 at 50%: fitted conc. at Y=50.
The mark [12] stands for this setting: HCT-116, BRAF G466V, percentage protein degraded at maximal compound effect relative to DMSO.
The mark [13] stands for this setting: Class 2, BRAF G469A, DC50 at 50%: fitted conc. at Y=50.
The mark [14] stands for this setting: HCT-116, Class 2, BRAF G469A, percentage protein degraded at maximal compound effect relative to DMSO.
Where [15] appears, read: BRAF D594G, DC50 at 50%: fitted conc. at Y=50.
Setting [16] is: HCT-116, BRAF D594G, percentage protein degraded at maximal compound effect relative to DMSO.

T4 sequence (P15056 whole entry D594G): as the sequence (P15056 whole entry V600E, the tested form may be a part) above, with D594G, E600V counted along it
T2 sequence (P15056 whole entry G466V): as the sequence (P15056 whole entry V600E, the tested form may be a part) above, with G466V, E600V counted along it

`O=C1CC[C@H](c2ccc(N3CCC(CN4CCN(c5ccc(-n6cc(-c7cc(F)cc(NS(=O)(=O)N8CC[C@@H](F)C8)c7F)c(-c7ccncc7)n6)nc5)CC4)CC3)nc2)C(=O)N1` [Compound 305, (3R)—N-{3-[1-(5-{4-[(1-{5-[(3R)-2,6-dioxopiperidin-3-yl]pyridin-2-yl}piperidin-4-yl)methyl]piperazin-1-yl}pyridin-2-yl)-3-(pyridin-4-yl)-1H-pyrazol-4-yl]-2,5-difluorophenyl}-3-fluoropyrrolidine-1-sulfonamide]: the 50% degradation concentration (DC50) at BRAF V600E (setting [1]), on BRAF G466V (setting [3]), on BRAF G469A (setting [5]) and on BRAF D594G (setting [7]) was less than 10 nM in each case. The greatest degradation seen (Dmax) on BRAF V600E (setting [2]), on BRAF G466V (setting [4]), on BRAF G469A (setting [6]) and on BRAF D594G (setting [8]) was greater than 70% each time.

In the case of `CCCS(=O)(=O)Nc1cccc(-c2nc(C3CCC4(CC3)CN(C(=O)CCCCCc3ccc5c(c3)C(=O)N(C3CCC(=O)NC3=O)C5)C4)sc2-c2ccnc(N)n2)c1F` (racemic) [Compound 234, Rac-N-{3-[5-(2-aminopyrimidin-4-yl)-2-[2-(6-{2-[(3R)-2,6-dioxopiperidin-3-yl]-3-oxo-2,3-dihydro-1H-isoindol-5-yl}hexanoyl)-2-azaspiro[3.5]nonan-7-yl]-1,3-thiazol-4-yl]-2-fluorophenyl}propane-1-sulfonamide], the DC50 at BRAF V600E (setting [9]) is less than 10 nM; on BRAF G466V (setting [11]), 10 to 50 nM; at BRAF G469A (setting [13]), greater than 500 nM; at BRAF D594G (setting [15]), less than 10 nM. Moreover, the greatest degradation seen (Dmax) is greater than 70% on BRAF V600E (setting [10]), 30 to 70% on BRAF G466V (setting [12]), less than 30% at BRAF G469A (setting [14]) and 30 to 70% at BRAF D594G (setting [16]).

`CCN(C)S(=O)(=O)Nc1cc(F)cc(-c2cn(-c3ccc(N4CCN(CC5CCN(c6ccc([C@H]7CCC(=O)NC7=O)cc6)CC5)CC4)cc3)nc2-c2ccncc2)c1F` [Compound 377, (3R)-3-(4-{4-[(4-{4-[4-(3-{[ethyl(methyl)sulfamoyl]amino}-2,5-difluorophenyl)-3-(pyridin-4-yl)-1H-pyrazol-1-yl]phenyl}piperazin-1-yl)methyl]piperidin-1-yl}phenyl)piperidine-2,6-dione]: the DC50 on BRAF V600E (setting [1]) was 10 to 50 nM; at BRAF G466V (setting [3]) it was 10 to 50 nM; on BRAF G469A (setting [5]), less than 10 nM; at BRAF D594G (setting [7]), 10 to 50 nM. Also, the Dmax on BRAF V600E (setting [2]) was greater than 70%; on BRAF G466V (setting [4]) it was greater than 70%; on BRAF G469A (setting [6]), 30 to 70%; on BRAF D594G (setting [8]) it was 30 to 70%.

For the molecule `CCCS(=O)(=O)Nc1cccc(-c2nc(C(C)(C)C)sc2-c2ccnc(Nc3ccc(C4CCN(C(=O)C[C@H]5CCN(c6ccc(C7CCC(=O)NC7=O)cc6)C5)CC4)cc3)n2)c1F` (mixture of isomers) [Compound 165, N-{3-[2-tert-butyl-5-(2-{[4-(1-{2-[(3R)-1-{4-[(3RS)-2,6-dioxopiperidin-3-yl]phenyl}pyrrolidin-3-yl]acetyl}piperidin-4-yl)phenyl]amino}pyrimidin-4-yl)-1,3-thiazol-4-yl]-2-fluorophenyl}propane-1-sulfonamide], the DC50 at BRAF V600E (setting [9]) is 10 to 50 nM; at BRAF G466V (setting [11]), greater than 500 nM; at BRAF G469A (setting [13]), greater than 500 nM; at BRAF D594G (setting [15]) it was greater than 500 nM. Further, the Dmax was 30 to 70% at BRAF V600E (setting [10]), less than 30% on BRAF G466V (setting [12]), less than 30% on BRAF G469A (setting [14]) and less than 30% on BRAF D594G (setting [16]).

Consider `CCCS(=O)(=O)Nc1cccc(-c2nc(C3CCC4(CC3)CCN(C(=O)CCCCCc3ccc5c(c3)C(=O)N(C3CCC(=O)NC3=O)C5)CC4)sc2-c2ccnc(N)n2)c1F` (racemic) [Compound 235, Rac-N-{3-[5-(2-aminopyrimidin-4-yl)-2-[3-(6-{2-[(3R)-2,6-dioxopiperidin-3-yl]-3-oxo-2,3-dihydro-1H-isoindol-5-yl}hexanoyl)-3-azaspiro[5.5]undecan-9-yl]-1,3-thiazol-4-yl]-2-fluorophenyl}propane-1-sulfonamide], for which the DC50 is less than 10 nM on BRAF V600E (setting [9]), greater than 500 nM on BRAF G466V (setting [11]), greater than 500 nM on BRAF G469A (setting [13]) and greater than 500 nM on BRAF D594G (setting [15]). The Dmax at BRAF V600E (setting [10]) was greater than 70%; at BRAF G466V (setting [12]) it was 30 to 70%; at BRAF G469A (setting [14]), 30 to 70%; at BRAF D594G (setting [16]) it was 30 to 70%.

`CCCS(=O)(=O)Nc1cccc(-c2nc(C(C)(C)C)sc2-c2ccnc(Nc3cnn(CC4CCN(C(=O)C[C@@H]5CCN(c6ccc(C7CCC(=O)NC7=O)cc6)C5)CC4)c3)n2)c1F` (mixture of isomers) [Compound 112, N-(3-{2-tert-butyl-5-[2-({1-[(1-{2-[(3S)-1-{4-[(3RS)-2,6-dioxopiperidin-3-yl]phenyl}pyrrolidin-3-yl]acetyl}piperidin-4-yl)methyl]-1H-pyrazol-4-yl}amino)pyrimidin-4-yl]-1,3-thiazol-4-yl}-2-fluorophenyl)propane-1-sulfonamide]: the 50% degradation concentration (DC50) was less than 10 nM at BRAF V600E (setting [9]), greater than 500 nM at BRAF G466V (setting [11]), greater than 500 nM at BRAF G469A (setting [13]) and greater than 500 nM at BRAF D594G (setting [15]). In addition, the greatest degradation seen (Dmax) on BRAF V600E (setting [10]) was 30 to 70%; on BRAF G466V (setting [12]), less than 30%; on BRAF G469A (setting [14]), less than 30%; at BRAF D594G (setting [16]), 30 to 70%.

In the case of `O=C1CCC(c2ccc(N3CCC(CN4CCN(c5ccc(-n6cc(-c7cc(Cl)cc(NS(=O)(=O)N8CCCC8)c7F)c(-c7ccncc7)n6)cc5)CC4)CC3)cc2F)C(=O)N1` (racemic) [Compound 348, Rac-N-{5-chloro-3-[1-(4-{4-[(1-{4-[(3R)-2,6-dioxopiperidin-3-yl]-3-fluorophenyl}piperidin-4-yl)methyl]piperazin-1-yl}phenyl)-3-(pyridin-4-yl)-1H-pyrazol-4-yl]-2-fluorophenyl}pyrrolidine-1-sulfonamide], the DC50 was less than 10 nM at BRAF V600E (setting [1]), less than 10 nM on BRAF G466V (setting [3]), 10 to 50 nM at BRAF G469A (setting [5]) and less than 10 nM at BRAF D594G (setting [7]). The Dmax was greater than 70% on BRAF V600E (setting [2]), greater than 70% on BRAF G466V (setting [4]), 30 to 70% on BRAF G469A (setting [6]) and 30 to 70% at BRAF D594G (setting [8]).

As for `O=C1CCN(c2ccc(N3CCC(CN4CCN(c5ccc(-n6cc(-c7cc(Cl)cc(NS(=O)(=O)N8CC[C@@H](F)C8)c7F)c(-c7ccncc7)n6)nc5)CC4)CC3)cc2)C(=O)N1` [Compound 295, (3R)—N-[5-chloro-3-(1-{5-[4-({1-[4-(2,4-dioxo-1,3-diazinan-1-yl)phenyl]piperidin-4-yl}methyl)piperazin-1-yl]pyridin-2-yl}-3-(pyridin-4-yl)-1H-pyrazol-4-yl)-2-fluorophenyl]-3-fluoropyrrolidine-1-sulfonamide], the half-maximal degradation concentration (DC50) at BRAF V600E (setting [1]) is less than 10 nM; at BRAF G466V (setting [3]), less than 10 nM; on BRAF G469A (setting [5]), 50 to 500 nM; at BRAF D594G (setting [7]), less than 10 nM. Besides, the greatest degradation seen (Dmax) on BRAF V600E (setting [2]) was greater than 70%; on BRAF G466V (setting [4]), 30 to 70%; at BRAF G469A (setting [6]), 30 to 70%; on BRAF D594G (setting [8]) it was 30 to 70%.

As for `CCN(C)S(=O)(=O)Nc1cccc(-c2nc(C)sc2-c2ccnc(Nc3ccc(N4CCN(CC5CCN(c6ccc([C@H]7CCC(=O)NC7=O)cn6)CC5)CC4)cn3)n2)c1F` [Compound 27, (3R)-3-{6-[4-({4-[6-({4-[4-(3-{[ethyl(methyl)sulfamoyl]amino}-2-fluorophenyl)-2-methyl-1,3-thiazol-5-yl]pyrimidin-2-yl}amino)pyridin-3-yl]piperazin-1-yl}methyl)piperidin-1-yl]pyridin-3-yl}piperidine-2,6-dione], the 50% degradation concentration (DC50) on BRAF V600E (setting [9]) is less than 10 nM; on BRAF G466V (setting [11]), 10 to 50 nM; at BRAF G469A (setting [13]), 50 to 500 nM; on BRAF D594G (setting [15]), 10 to 50 nM. Besides, the greatest degradation seen (Dmax) on BRAF V600E (setting [10]) is greater than 70%; at BRAF G466V (setting [12]) it was greater than 70%; on BRAF G469A (setting [14]), 30 to 70%; at BRAF D594G (setting [16]) it was 30 to 70%.
